What is called CC50 is the concentration giving 50% cytotoxicity. A high value points to lower toxicity to the cells. The term EC50 denotes the midpoint of the concentration-response curve. Low values mean an effect from little substance, high ones a need for much substance.

Data set [1] is described as follows: Selectivity index, ratio of CC50 for human ORL8 cells to EC50 for Hepatitis C virus infected in […]. The class given is toxicity, cell-based. Conditions: read-out: Ratio CC50/EC50.
A short description of data set [2]: Cytotoxicity against human ORL8 cells after 72 hrs by WST-1 assay. The class given is cell-based. Background: Tetrazolium assays rely on reduction of a dye to a coloured formazan, in cell work by metabolically active cells.
The test system of a further data set is Human alphaherpesvirus 3. Put plainly: Antimicrobial activity against Varicella-zoster virus. The class given is functional, organism-based.
The subject of a further data set is Leukemia cell. Nature of the data set: Cytotoxicity against mouse leukemia cells. The class given is functional, cell-based.
The test system of data set [3] is Hepatitis C virus. Nature of the data set: Antiviral activity against Hepatitis C virus infected in […] after 72 hrs by luciferase reporter gene assay. The class given is functional, organism-based, Hepacivirus hominis. The conditions noted are these: OR6, 72 h.
Another data set has as its system Cancer cell lines. Put plainly: Cytotoxicity against human cervical cancer cells. The class given is functional, cell-based.
Data set [4] deals with Vesicular stomatitis virus. Put plainly: Antimicrobial activity against Vesicular stomatitis virus. The class given is functional, organism-based.
The subject of the next data set is Herpesviridae sp. Nature of the data set: Antimicrobial activity against Herpes simplex virus. The class given is functional, organism-based.
The next data set deals with Human betaherpesvirus 5. Put plainly: Antimicrobial activity against Human cytomegalovirus. The class given is functional, organism-based.
In data set [5] the test system is Hepatitis C virus. Put plainly: Antiviral activity against Hepatitis C virus infected in mouse HB-1 cells after 24 hrs by ribonuclease replicon assay. Conditions: HB1, 24 h. The class given is functional, organism-based, Hepacivirus hominis. Background: In antiviral work, replicon cells carry a viral genome segment that copies itself.

The source made the active and inactive calls. The calls are words filed in the database; no cut-off is given here.

For `Nc1ncnc2c1ncn2[C@@H]1O[C@@](F)(CO)[C@@H](F)[C@@H]1O`, the selectivity ratio in data set [1] is above 1. In data set [2], this molecule returned a CC50 at 72 h above 200 µM. For the same molecule, the outcome (in the data set on Human alphaherpesvirus 3; in data set [4]; in the data set with Herpesviridae sp.; in the data set with Human betaherpesvirus 5) was inactive. In addition, the inhibition entry in the data set on Leukemia cell and in the data set on Cancer cell lines was “inactive” throughout. Also, the EC50 in the data set with Hepatitis C virus [3] is above 200 µM.
Turning to `Nc1ncnc2c1ncn2[C@@H]1O[C@H](CO)C[C@H]1O` [CORDYCEPIN], the selectivity ratio in data set [1] worked out at 0.19. This molecule also returned a CC50 at 72 h in data set [2] of 13 µM. Further, a half-maximal effect with Hepatitis C virus [3] (EC50) was put at 70 µM.
For the molecule `Nc1ccn([C@@H]2O[C@](F)(CO)[C@H](F)[C@H]2O)c(=O)n1`, the selectivity ratio in data set [1] was below 0.36. The molecule further displayed a CC50 at 72 h in data set [2] of 36 µM. Moreover, in the data set with Hepatitis C virus [3], the EC50 is above 100 µM.
For `Nc1ccn([C@@H]2O[C@@](F)(CO)[C@H](F)[C@H]2O)c(=O)n1`, the selectivity ratio in data set [1] was below 0.23. Moreover, in data set [2], the CC50 at 72 h was determined as 23 µM. This molecule also yielded an EC50 in the data set on Hepatitis C virus [3] above 100 µM.
Turning to `NC(=O)c1ncn([C@@H]2O[C@H](CO)[C@@H](O)[C@H]2O)n1` [RIBAVIRIN], the selectivity ratio in data set [1] amounted to 18. In [2], this molecule showed a CC50 at 72 h of 100 µM. The molecule further showed an EC50 in the data set with Hepatitis C virus [3] of 5.6 µM.
As for `Nc1ncnc2c1ncn2[C@@H]1O[C@H](CO)[C@@H](F)[C@H]1O`, in the data set with Hepatitis C virus [5], the EC50 was 1.2 µM.
With `Nc1ccn([C@@H]2O[C@](F)(CO)[C@@H](F)[C@H]2O)c(=O)n1`, the selectivity ratio in data set [1] was below 1. Further, the CC50 at 72 h in data set [2] is above 50 µM. Further, the EC50 in the data set on Hepatitis C virus [3] was above 50 µM.
On to `Nc1ncnc2c1ncn2[C@@H]1O[C@](F)(CO)[C@@H](F)[C@H]1O`, for which the selectivity ratio in data set [1] worked out at 19. The molecule further returned a CC50 at 72 h in data set [2] of 90 µM. For the same molecule, the outcome (in the data set with Human alphaherpesvirus 3; in data set [4]; in the data set on Herpesviridae sp.; in the data set on Human betaherpesvirus 5) was inactive. For the same molecule, the inhibition result in the data set on Leukemia cell and with Cancer cell lines was “inactive” each time. A half-maximal response in the data set with Hepatitis C virus [3] (EC50) required 4.7 µM.
As for `CC(C)OC(=O)[C@H](C)N[P@](=O)(OC[C@H]1O[C@@H](n2ccc(=O)[nH]c2=O)[C@](C)(F)[C@@H]1O)Oc1ccccc1` [SOFOSBUVIR], the selectivity ratio in data set [1] is above 36. This molecule also returned a CC50 at 72 h in data set [2] above 5 µM. In the data set with Hepatitis C virus [3], this molecule showed an EC50 of 0.14 µM.
`Nc1ncnc2c1ncn2[C@@H]1O[C@@](F)(CO)[C@H](F)[C@H]1O`: the selectivity ratio in [1] was above 1. For the same molecule, in data set [2], the CC50 at 72 h is above 100 µM. For the same molecule, the result (with Human alphaherpesvirus 3; in data set [4]; with Herpesviridae sp.; in the data set with Human betaherpesvirus 5) was inactive. Besides, the inhibition entry with Leukemia cell and with Cancer cell lines was “inactive” each time. In the data set with Hepatitis C virus [3], the 50% effective concentration (EC50) was above 100 µM.
For the molecule `Nc1ncnc2c1ncn2[C@@H]1O[C@](F)(CO)[C@H](F)[C@H]1O`, the selectivity ratio in [1] is above 1. Also, the CC50 at 72 h in data set [2] was above 200 µM. The result (in the data set on Human alphaherpesvirus 3; in data set [4]; in the data set on Herpesviridae sp.; in the data set on Human betaherpesvirus 5) was inactive. The inhibition entry in the data set on Leukemia cell and with Cancer cell lines was “inactive” in each case. The molecule also had an EC50 in the data set with Hepatitis C virus [3] above 200 µM.

(Values after ChEMBL document CHEMBL3352698, “Synthesis of 3',4'-difluoro-3'-deoxyribonucleosides and its evaluation of the biological activities: discovery of a novel type of anti-HCV agent 3',4'-difluorocordycepin” (Bioorg Med Chem, 2014).)
